Reference: patent publication US9309263B2, “Fused multi-cyclic sulfone compounds as inhibitors of beta-secretase and methods of use thereof” (AMGEN INC., priority 2013, dated 2016)
pIC50: −log10 of the molar value. Read-outs that look alike come from different tables or passages of the source.

Assays:
Cathepsin D (Cat D) = Cathepsin D (Cat D) (Homo sapiens, UniProt P07339); assay: In vitro enzymatic Cathepsin D (Cat D) FRET assay; format: biochemical
Protocol: In Vitro Enzymatic Cathepsin D (Cat D) FRET (Fluorescence Resonance Energy Transfer) Assay
Recombinant Cat D was expressed in CHO cells. The assay buffer for CathepsinD is 0.05 M citrate pH 3.5, 10% DMSO final, 5 mM CHAPS. The Cat D enzyme (9 nM) is pre-incubated for one hour with inhibitors, typically in about 1 uL of DMSO according to a serial dilution, is added thereto. The assays are effectively started by the addition of different FRET substrates (20 nM for Cat D) and the combination is incubated for one hour. The FRET assay is terminated with by addition of Tris buffer, which raises the pH to neutrality, and the fluorescence is determined. The FRET substrate is a peptide with commercially available fluorophore and quencher, on opposite sides of the BACE cleavage site. The Cat D substrate peptide sequence is based on sequence #1 of Table 1 from Gulnik et al. FEBS Letters v413 p 379-384 1997. Proteolytic cleavage of the FRET substrate releases quenching of fluorescence (Cat D excitation 500 nm and emission 580 nm). […]
See, for instance, examples 8, 12, 15, 16, 18, 21-23, 24, 25, 26, 29, 30, 32, 41-42, 45, 53, 54, 57, 63, 67-69, 72-74, 76, 79-81, 83 & 84 (to point to just a few; referring to data in Table 2). […] See, for instance, examples 8, 12, 15, 18, 21-23, 25, 29, 30, 32, 41-42, 45, 54, 57, 67-68, 72-73, 76, 80-81, 84, 86, 91-92 & 100 (to point out those from compound examples 1-100; and with reference to data in Table 2).

[1] = target: Beta Secretase enzyme (BACE) (Homo sapiens, UniProt P56817); assay: In vitro enzymatic BACE FRET assay; format: biochemical; settings: average IC50; read-out: BACE1 FRET assay IC50
Chain of Beta Secretase enzyme (BACE) (P56817 46-501): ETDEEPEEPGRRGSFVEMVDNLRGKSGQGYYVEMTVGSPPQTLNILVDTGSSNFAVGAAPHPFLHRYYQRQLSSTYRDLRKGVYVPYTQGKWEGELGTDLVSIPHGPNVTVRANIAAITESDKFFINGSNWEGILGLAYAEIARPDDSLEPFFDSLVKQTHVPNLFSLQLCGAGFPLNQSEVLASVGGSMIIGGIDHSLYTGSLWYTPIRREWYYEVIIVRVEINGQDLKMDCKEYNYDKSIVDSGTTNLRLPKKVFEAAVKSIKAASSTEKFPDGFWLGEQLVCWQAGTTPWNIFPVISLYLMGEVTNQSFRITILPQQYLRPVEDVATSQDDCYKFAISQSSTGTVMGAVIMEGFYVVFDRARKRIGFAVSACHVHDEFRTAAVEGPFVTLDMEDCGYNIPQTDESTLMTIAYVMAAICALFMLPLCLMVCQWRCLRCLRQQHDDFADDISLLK
Protocol: In Vitro Enzymatic BACE FRET (Fluorescence Resonance Energy Transfer) Assay (Enzyme Assay Data in the Example Table I)
The assay buffer used in this screen is 0.05 M acetate, pH 4.2, 10% DMSO final, 100 uM genapol (which is a nonionic detergent, below its Critical Micelle Concentration). The Beta Secretase enzyme (0.2 nM) is pre-incubated for one hour with inhibitors, typically in about 1 uL of DMSO according to a serial dilution, are added thereto. This assay is effectively started by the addition of FRET substrate (50 nM) and the combination is incubated for one hour. The FRET assay is terminated with by addition of Tris buffer, which raises the pH to neutrality, and the fluorescence is determined. The FRET substrate is a peptide with commercially available fluorophore and quencher, on opposite sides of the BACE cleavage site. Proteolytic cleavage of the FRET substrate releases quenching of fluorescence (excitation 488 nm and […]).

[2] = test system: Aβ 40 in conditioned medium of cells stably expressing Amyloid Precursor Protein (APP); assay: In vitro BACE cell-based assay (Aβ 40 sandwich ELISA); settings: Homo sapiens, HEK293; HEK cell; average IC50
Protocol: In Vitro BACE Cell-Based Assay
The cell-based assay measures inhibition or reduction of […] in conditioned medium of test compound treated cells expressing amyloid precursor protein.
Cells stably expressing Amyloid Precursor Protein (APP) were plated at a density of 40K cells/well in 96 well plates (Costar). The cells were cultivated for 24 hours at 37° C. and 5% CO2 in DMEM supplemented with 10% FBS. The test compounds were then added to cells in 10-point dose response concentrations with the starting concentration being either 100 μM or 10 μM. The compounds were diluted from stock solutions in DMSO and the final DMSO concentration of the test compounds on cells was 0.1%. After 24 h of incubation with the test compounds the supernatant conditioned media was collected and the Aβ 40 levels were determined using a sandwich ELISA. The IC50 of the compound was calculated from the percent of control or percent inhibition of Aβ 40 as a function of the concentration of the test compound.
The sandwich ELISA to detect Aβ 40 was performed in 96 well microtiter plates, which were pre-treated with goat anti-rabbit IgG (Pierce). The capture and detecting antibody pair that were used to detect Aβ 40 from cell supernatants were affinity purified pAb40 (Biosource) and biotinylated 6E10 (Signet Labs Inc.), respectively. The optimal concentration for the pAb40 antibody was 3 μg/ml in Superblock/TBS (Pierce) that was supplemented with 0.05% Tween 20 (Sigma). Optimal concentration for the detection antibody 6E10-biotinylated was 0.5 μg/ml in Superblock/TBS (Pierce) that had been supplemented with 2% normal goat serum and 2% normal mouse serum.
Cellular supernatants were incubated with the capture antibody for 3 h at 4° C., followed by 3 wash steps in TBS-tween (0.05%). The detecting antibody incubation was for 2 h at 4° C., again followed by the wash steps as described previously. The final readout of the ELISA is Time-Resolved Fluorescence (counts per minute) using Delfia reagents Streptavidin-Europium and Enhancement solutions (Perkin Elmer) and the Victor 2 multilabel counter (Perkin Elmer).

[3] = text summary referring to data in Table 2

Chain of Cathepsin D (Cat D) (P07339 65-412, species assumed): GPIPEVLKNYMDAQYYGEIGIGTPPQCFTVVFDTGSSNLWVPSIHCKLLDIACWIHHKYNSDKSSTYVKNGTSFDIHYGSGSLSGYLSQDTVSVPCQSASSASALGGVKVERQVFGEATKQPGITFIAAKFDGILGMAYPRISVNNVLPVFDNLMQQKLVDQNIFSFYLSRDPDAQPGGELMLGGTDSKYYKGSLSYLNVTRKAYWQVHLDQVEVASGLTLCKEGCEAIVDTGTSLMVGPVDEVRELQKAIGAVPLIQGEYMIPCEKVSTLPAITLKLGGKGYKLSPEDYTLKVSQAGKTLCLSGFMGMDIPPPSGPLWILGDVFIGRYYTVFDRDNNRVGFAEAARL

pIC50 (Cathepsin D (Cat D); read-out: CatD IC50)	pIC50 [1]	pIC50 [2]	pIC50 (Cathepsin D (Cat D); [3])	SMILES
3.65	7.82	7.80		CCc1cc(Cl)cnc1C(=O)Nc1ccc2c(c1)[C@@]1(C)N=C(N)C(C)(C)S(=O)(=O)[C@@H]1CCO2 [Example 31, N-((4aR,11bR)-2-amino-3,3,11b-trimethyl-4,4-dioxido-4a,5,6,11b-tetrahydro-3H-benzo[6,7]oxepino[4,5-b][1,4]thiazin-10-yl)-5-chloro-3-ethylpicolinamide]
2.87	7.14	7.68	< 2.92	COc1cnc(C(=O)Nc2ccc3c(c2)[C@@]2(C)N=C(N)C(C)(C)S(=O)(=O)[C@H]2CCC3)c(C)c1 [Example 32, N-((4aS,11bR)-2-amino-3,3,11b-trimethyl-4,4-dioxido-3,4a,5,6,7,11b-hexahydrobenzo[3,4]cyclohepta[1,2-b][1,4]thiazin-10-yl)-5-methoxy-3-methyl-2-pyridinecarboxamide]
< 3.40	7.31	7.64		Cc1cc(C(F)F)cnc1C(=O)Nc1ccc2c(c1)[C@@]1(C)N=C(N)C(C)(C)S(=O)(=O)[C@H]1CCC2 [Example 35, N-((4aS,11bR)-2-amino-3,3,11b-trimethyl-4,4-dioxido-3,4a,5,6,7,11b-hexahydrobenzo[3,4]cyclohepta[1,2-b][1,4]thiazin-10-yl)-5-(difluoromethyl)-3-methyl-2-pyridinecarboxamide]
< 3.40	7.21	6.54		CC1(C)C(N)=N[C@]2(C)c3cc(NC(=O)c4ncc(Cl)cc4Cl)ccc3CCC[C@@H]2S1(=O)=O [Example 36, N-((4aS,11bR)-2-amino-3,3,11b-trimethyl-4,4-dioxido-3,4a,5,6,7,11b-hexahydrobenzo[3,4]cyclohepta[1,2-b][1,4]thiazin-10-yl)-3,5-dichloro-2-pyridinecarboxamide]
< 3.40	7.44	7.80		Cc1cc(C#N)cnc1C(=O)Nc1ccc2c(c1)[C@@]1(C)N=C(N)C(C)(C)S(=O)(=O)[C@H]1CCC2 [Example 37, N-((4aS,11bR)-2-amino-3,3,11b-trimethyl-4,4-dioxido-3,4a,5,6,7,11b-hexahydrobenzo[3,4]cyclohepta[1,2-b][1,4]thiazin-10-yl)-5-cyano-3-methyl-2-pyridinecarboxamide]
< 3.40	7.00	6.82		CC1(C)C(N)=N[C@]2(C)c3cc(NC(=O)c4ccc(Cl)cn4)ccc3CCC[C@@H]2S1(=O)=O [Example 38, N-((4aS,11bR)-2-amino-3,3,11b-trimethyl-4,4-dioxido-3,4a,5,6,7,11b-hexahydrobenzo[3,4]cyclohepta[1,2-b][1,4]thiazin-10-yl)-5-chloro-2-pyridinecarboxamide]
< 3.40	6.85	7.66		Cc1cc(OC(F)F)cnc1C(=O)Nc1ccc2c(c1)[C@@]1(C)N=C(N)C(C)(C)S(=O)(=O)[C@H]1CCC2 [Example 39, N-((4aS,11bR)-2-amino-3,3,11b-trimethyl-4,4-dioxido-3,4a,5,6,7,11b-hexahydrobenzo[3,4]cyclohepta[1,2-b][1,4]thiazin-10-yl)-5-(difluoromethoxy)-3-methyl-2-pyridinecarboxamide]
< 3.40	7.46	7.82		Cc1cc(C(F)F)cnc1C(=O)Nc1ccc2c(c1)[C@@]1(C)N=C(N)C(C)(C)S(=O)(=O)[C@@H]1CCC2 [Example 40, N-((4aR,11bR)-2-amino-3,3,11b-trimethyl-4,4-dioxido-3,4a,5,6,7,11b-hexahydrobenzo[3,4]cyclohepta[1,2-b][1,4]thiazin-10-yl)-5-(difluoromethyl)-3-methyl-2-pyridinecarboxamide]

Second part, the molecule before the results:

SMILES	pIC50 (Cathepsin D (Cat D); read-out: CatD IC50)	pIC50 [1]	pIC50 [2]	pIC50 (Cathepsin D (Cat D); [3])
Cc1cc(Cl)cnc1C(=O)Nc1ccc2c(c1)[C@@]1(C)N=C(N)C(C)(C)S(=O)(=O)[C@]1(C)CCO2 [Example 27, N-((4aR,11bR)-2-amino-3,3,4a,11b-tetramethyl-4,4-dioxido-4a,5,6,11b-tetrahydro-3H-[1]benzoxepino[4,5-b][1,4]thiazin-10-yl)-5-chloro-3-methyl-2-pyridinecarboxamide]	3.26	6.82	6.58	
Cc1c(C(=O)Nc2ccc3c(c2)[C@@]2(C)N=C(N)C(C)(C)S(=O)(=O)[C@@H]2CCO3)nc2ccc(Cl)cn12 [Example 28, N-((4aR,11bR)-2-amino-3,3,11b-trimethyl-4,4-dioxido-4a,5,6,11b-tetrahydro-3H-[1]benzoxepino[4,5-b][1,4]thiazin-10-yl)-6-chloro-3-methylimidazo[1,2-a]pyridine-2-carboxamide]	< 3.40	7.55	8.10	
CCc1ccc(C(=O)Nc2ccc3c(c2)[C@@]2(C)N=C(N)C(C)(C)S(=O)(=O)[C@@H]2CCO3)nc1 [Example 29, N-((4aR,11bR)-2-amino-3,3,11b-trimethyl-4,4-dioxido-4a,5,6,11b-tetrahydro-3H-[1]benzoxepino[4,5-b][1,4]thiazin-10-yl)-5-ethyl-2-pyridinecarboxamide]	2.86	7.42	8.00	< 2.92
CC1(C)C(N)=N[C@]2(C)c3cc(NC(=O)c4cc5ccccc5cn4)ccc3OCC[C@H]2S1(=O)=O [Example 30, N-((4aR,11bR)-2-amino-3,3,11b-trimethyl-4,4-dioxido-4a,5,6,11b-tetrahydro-3H-[1]benzoxepino[4,5-b][1,4]thiazin-10-yl)-3-isoquinolinecarboxamide]	2.97	7.08	7.24	< 2.92
CC1(C)C(N)=N[C@]2(C)c3cc(Nc4nccc5cc(C#N)cnc45)ccc3CCC[C@@H]2S1(=O)=O [Example 33, 8-(((4aS,11bR)-2-amino-3,3,11b-trimethyl-4,4-dioxido-3,4a,5,6,7,11b-hexahydrobenzo[3,4]cyclohepta[1,2-b][1,4]thiazin-10-yl)amino)-1,7-naphthyridine-3-carbonitrile]	3.54	7.54	7.01	
CC1(C)C(N)=N[C@]2(C)c3cc(Nc4nccc5cc(Cl)cnc45)ccc3CCC[C@@H]2S1(=O)=O [Example 34, (4aS,11bR)-N^~10^~-(3-chloro-1,7-naphthyridin-8-yl)-3,3,11b-trimethyl-3,4a,5,6,7,11b-hexahydrobenzo[3,4]cyclohepta[1,2-b][1,4]thiazine-2,10-diamine 4,4-dioxide]	3.39	7.15	6.33	
